Experimental data: US20070032448A1, “Sugar modified nucleosides as viral replication inhibitors” (priority 2002, published 2007)
Read-outs that look alike come from different tables or passages of the source.

Legend:
[1] = system: HCV replicon RNA in replicon cells (Huh-7); assay: HCV replicon assay; assay type: cell-based, Hepatitis C virus
Procedure: The replicon cells (Huh-7) contain replicating HCV replicon RNA, which was modified in the structural region (replacing the structural region with a neomycin resistance marker). Survival of the replicon cells under G418 selection relies on the replication of HCV RNA and subsequently expression of neomycin phosphoryltransferase. The ability of modified nucleoside libraries and compounds to suppress HCV RNA replication was determined using the Quantigene Assay Kit from Bayer. The assay measures the reduction of HCV RNA molecules in the treated cells. Replicon cells were incubated at 37° C. for 3 days in the presence of nucleoside libraries and compounds before harvested for detection. An HCV subgenomic replicon cell line was provided by Dr. Bartenschlager. The assay protocol was modified based on literature procedure (V. Lohmann, F. Korner, J. O. Koch, U. Herian, L. Theilmann, R. Bartenschlager, Science, 1999, 285, 110-113).

mice = assay: Toxicity in mice; assay type: in vivo; settings: 160 mg/kg dosing
[2] = Pharmacokinetics, intravenous and oral dosing; assay type: in vivo
[3] = Hepatitis C virus, Huh-7, 72 h, read-out: HCV Replicon EC50
[4] = 2′-beta-6-substituted adenosine derivatives, Huh-7 replicon cells, 3 days, read-out: HCV Replicon EC50
[5] = Hepatitis C virus, 72 h, 2′-beta-methyl cytidine and uridine derivatives, Huh-7 replicon cells, 3 days, read-out: HCV REPLICON EC50

| Structure (SMILES) | EC50 [1, 3] | EC50 [1, 4] | other results |
| --- | --- | --- | --- |
| CC[C@@]1(O)[C@H](O)[C@@H](CO)O[C@H]1n1cnc2c(N)ncnc21 [Compound P6, 2′-C-Ethyladenosine] | > 100 µM |  |  |
| CC[C@@]1(O)[C@H](O)[C@@H](CO)O[C@H]1n1cnc2c(NC)ncnc21 [Compound P7, N^6-Methyl-2′-C-ethyladenosine] | > 100 µM |  |  |
| CC[C@@]1(O)[C@H](O)[C@@H](CO)O[C@H]1n1cnc2c(N(C)C)ncnc21 [Compound P8, N^6-Dimethyl-2′-C-ethyladenosine] |  | > 100 µM |  |
| CC[C@@]1(O)[C@H](O)[C@@H](CO)O[C@H]1n1cnc2c(SC)ncnc21 [Compound P9, 9-(2-C-Ethyl-β-D-ribofuranosyl)-6-methylmercaptopurine] | > 100 µM |  |  |
| CC[C@@]1(O)[C@H](O)[C@@H](CO)O[C@H]1n1cnc2c(OC)ncnc21 [Compound P10, 9-(2-C-ethyl-β-D-ribofuranosyl)-6-methoxy-purine] | > 100 µM |  |  |
| C=C[C@@]1(O)[C@H](O)[C@@H](CO)O[C@H]1n1cnc2c(N)ncnc21 [Compound P11, 2′-C-Vinyladenosine] | > 100 µM |  |  |
| C=C[C@@]1(O)[C@H](O)[C@@H](CO)O[C@H]1n1cnc2c(NC)ncnc21 [Compound P12, N^6-Methyl-2′-C-vinyladenosine] | > 100 µM |  |  |
| C=C[C@@]1(O)[C@H](O)[C@@H](CO)O[C@H]1n1cnc2c(N(C)C)ncnc21 [Compound P13, N^6-Dimethyl-2′-C-vinyladenosine] |  | > 100 µM |  |
| C=C[C@@]1(O)[C@H](O)[C@@H](CO)O[C@H]1n1cnc2c(SC)ncnc21 [Compound P14, 9-(2-C-Vinyl-β-D-ribofuranosyl)-6-methylmercaptopurine] | > 100 µM |  |  |
| C=C[C@@]1(O)[C@H](O)[C@@H](CO)O[C@H]1n1cnc2c(OC)ncnc21 [Compound P15, 9-(2-C-vinyl-β-D-ribofuranosyl)-6-methoxy-purine] | > 100 µM |  |  |
| Nc1ncnc2c1ncn2[C@@H]1O[C@H](CO)[C@@H](O)[C@]1(O)C1CC1 [Compound P16, 2′-C-Cyclopropyladenosine] | > 100 µM |  |  |
| CNc1ncnc2c1ncn2[C@@H]1O[C@H](CO)[C@@H](O)[C@]1(O)C1CC1 [Compound P17, N^6-Methyl-2′-C-cyclopropylyladenosine] |  | > 100 µM |  |
| CN(C)c1ncnc2c1ncn2[C@@H]1O[C@H](CO)[C@@H](O)[C@]1(O)C1CC1 [Compound P18, N^6-Dimethyl-2′-C-cyclopropylyladenosine] |  | > 100 µM |  |
| CSc1ncnc2c1ncn2[C@@H]1O[C@H](CO)[C@@H](O)[C@]1(O)C1CC1 [Compound P19, 9-(2-C-Cyclopropyl-β-D-ribofuranosyl)-6-methylmercaptopurine] | > 100 µM |  |  |
| COc1ncnc2c1ncn2[C@@H]1O[C@H](CO)[C@@H](O)[C@]1(O)C1CC1 [Compound P20, 9-(2-C-cyclopropyl-β-D-ribofuranosyl)-6-methoxypurine] | > 100 µM |  |  |
| C[C@@]1(O)[C@H](O)[C@@H](CO)O[C@H]1n1cnc2c(N)ncnc21 [Compound P21] |  | < 10 µM |  |
| CNc1ncnc2c1ncn2[C@@H]1O[C@H](CO)[C@@H](O)[C@@]1(C)O [Compound P22, N^6-Methyl-9H-(2′-C-methyl-β-D-ribofuranosyl)adenine] |  | < 10 µM |  |
| CN(C)c1ncnc2c1ncn2[C@@H]1O[C@H](CO)[C@@H](O)[C@@]1(C)O [Compound P23, N^6-Dimethyl-9H-(2′-C-methyl-β-D-ribofuranosyl)adenine] |  | < 10 µM |  |
| CSc1ncnc2c1ncn2[C@@H]1O[C@H](CO)[C@@H](O)[C@@]1(C)O [Compound P24, 6-Thiomethyl-9H-(2′-C-methyl-β-D-ribofuranosyl)adenine] |  | < 10 µM | body weight, food consumption, and behavior (mice): normal; tissue and organ abnormalities (mice): No tissue and organ abnormalities were observed; toxicity (mice): did not show toxicity; increase of bioavailability compared to Ribavirin ([2]; in vivo): approximately 4 times; AUC ([2]; intravenous dosing): 1950.6 ng·h/mL; C0 ([2]; intravenous dosing): 3452.4 ng/mL; t1/2b ([2]; intravenous dosing): 25.8 min; AUC ([2]; oral dosing): 1953.5 ng·h/mL; Cmax ([2]; oral dosing): 1085.0 ng/mL; Tmax ([2]; oral dosing): 45 min; t1/2β ([2]; oral dosing): 71.4 min; bioavailability ([2]; oral vs intravenous dosing): 100% |
| COc1ncnc2c1ncn2[C@@H]1O[C@H](CO)[C@@H](O)[C@@]1(C)O [Compound P25] |  | < 10 µM |  |
| C[C@@]1(O)[C@H](O)[C@@H](CO)O[C@H]1n1ccc(N)nc1=O [Compound P37, 2′-β-C-Methylcytidine] |  |  | EC50 [1, 5]: < 10 µM |
| Cc1cn([C@@H]2O[C@H](CO)[C@@H](O)[C@@]2(C)O)c(=O)nc1N [Compound P38] |  |  | EC50 [1, 5]: > 100 µM |
| C[C@@]1(O)[C@H](O)[C@@H](CO)O[C@H]1n1ccc(O)nc1=O [Compound P39] |  |  | EC50 [1, 5]: > 100 µM |
| CNc1ccn([C@@H]2O[C@H](CO)[C@@H](O)[C@@]2(C)O)c(=O)n1 [Compound P40] |  |  | EC50 [1, 5]: > 100 µM |
| CN(C)c1ccn([C@@H]2O[C@H](CO)[C@@H](O)[C@@]2(C)O)c(=O)n1 [Compound P41] |  |  | EC50 [1, 5]: > 100 µM |
| Cc1cn([C@@H]2O[C@H](CO)[C@@H](O)[C@@]2(C)O)c(=O)nc1O [Compound P42] |  |  | EC50 [1, 5]: > 100 µM |
| CNc1nc(=O)n([C@@H]2O[C@H](CO)[C@@H](O)[C@@]2(C)O)cc1C [Compound P43] |  |  | EC50 [1, 5]: > 100 µM |
| Cc1cn([C@@H]2O[C@H](CO)[C@@H](O)[C@@]2(C)O)c(=O)nc1N(C)C [Compound P44] |  |  | EC50 [1, 5]: > 100 µM |
